# Columns and labels:
# [1] = Phase I clinical study Part 1, single administration, pharmacokinetics and safety; assay type: in vivo, human; settings: human, plasma, oral; in any dose group, single administration
# Experimental: Test Example 3-1 Phase I Clinical Study
# All studies were conducted based on Good Clinical Practice (GCP). The phase I clinical study was composed of Part 1 to Part 7, and in Part 1, the safety, tolerability, and pharmacokinetics were confirmed when the fumaric acid cocrystal Form I crystal of the compound represented by Formula (I) was administered once and when it was administered repeatedly.
# The subjects who were determined to be eligible by the screening examination were randomly assigned to either the active drug group (see the following table for the dose of the fumaric acid cocrystal Form I crystal of the compound represented by Formula (I)) or the placebo group on the day before the day of administration of the investigational new drug (Day −1). On Day 1, the investigational new drug (active drug or placebo) was administered once in the fasted state.
# [2] = single ascending dose study in healthy Japanese adults; cited from earlier work
structure (smiles),measurement,setting,value
"Cn1cnc(Cn2c(=O)[nH]/c(=N\c3cc4cn(C)nc4cc3Cl)n(Cc3cc(F)c(F)cc3F)c2=O)n1 [compound represented by Formula (I), (6E)-6-[(6-chloro-2-methyl-2H-indazol-5-yl)imino]-3-[(1-methyl-1H-1,2,4-triazol-3-yl)methyl]-1-[(2,4,5-trifluorophenyl)methyl]-1,3,5-triazinane-2,4-dione]",half-life,[1],> 40 h
same,Safety and tolerability,[2],good safety and tolerability were confirmed

# Reference: patent US20250099474A1 (priority 2022, published 2025)
